Reference: patent US20110044938A1 (NYCOMED GMBH, priority 2006, published 2011)

What was measured:
[1] = tested on: subclones of RKO colon adenocarcinoma cells (RKOp27 or RKOp21) arrested by Ponasterone A; assay: Alamar Blue cell viability assay, cell cycle specific mode of action: cells arrested by ectopic p27Kip1 induced by Ponasterone A versus proliferating cells; type: cell-based; settings: Homo sapiens, RKO p27 induced (arrested) cells, 10 μM Ponasterone A, 72 hours, value = class bound given in Table A, read-out: −logIC50 RKO p27 induced (arrested) (converted)
Method in brief: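 RKOp27 or RKOp21 cells, 15000/well in DMEM/10% FCS, either arrested by p27Kip1 induced with 10 μM Ponasterone A or proliferating without inducer; compound added after 24 h, 72 h at 37° C. Alamar Blue fluorescence (544/590 nm), viability as % of untreated cells; −log IC50 reported.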

[2] = tested on: RKO (RKOp27) human colon adenocarcinoma cells; assay: Alamar Blue cell viability assay, anti-proliferative/cytotoxic activity on proliferating RKO subclones; type: cell-based; settings: RKOp27, 72 h, RKO p27 uninduced (proliferating) cells, value = class bound given in Table A, read-out: −logIC50 RKO p27 uninduced (proliferating) (converted)
Method in brief: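 RKOp27 subclones (5000 cells/well) were exposed 24 h after seeding to semi-log compound dilutions in DMEM with 10% FCS, in quadruplicate, for 72 h at 37 °C. Viability was read by Alamar Blue fluorescence (544/590 nm) relative to untreated cells (1% DMSO medium). IC50 came from concentration-effect curves and is reported as −log IC50 [mol/l].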

| IC50 [1] [µM] | Compound | IC50 [2] [nM] |
| --- | --- | --- |
| ≥ 100 | COc1cccc(C(C)CC(=O)Nc2sc3c(c2C#N)CCC(OC(=O)NCc2ccncc2)C3)c1 (stereo not shown) [Example 269, Pyridin-4-ylmethyl-carbamic acid 3-cyano-2-[3-(3-methoxy-phenyl)-butanoylamino]-4,5,6,7-tetrahydro-benzo[b]thiophen-6-yl ester] | 501 to 2000 |
| ≥ 100 | COc1cccc(C(C)CC(=O)Nc2sc3c(c2C#N)CCC(OC(=O)NCC2CCOCC2)C3)c1 (stereo not shown) [Example 270, (Tetrahydro-pyran-4-ylmethyl)-carbamic acid 3-cyano-2-[3-(3-methoxy-phenyl)-butanoyl-amino]-4,5,6,7-tetrahydro-benzo[b]thiophen-6-yl ester] | 501 to 2000 |
| ≥ 100 | COc1cccc(C(C)CC(=O)Nc2sc3c(c2C#N)CCC(OC(=O)NC2CCOCC2)C3)c1 (stereo not shown) [Example 271, (Tetrahydro-pyran-4-yl)-carbamic acid 3-cyano-2-[3-(3-methoxy-phenyl)-butanoylamino]-4,5,6,7-tetrahydro-benzo[b] thiophen-6-yl ester] | 501 to 2000 |
| ≥ 100 | COc1cccc(C(C)CC(=O)Nc2sc3c(c2C#N)CCC(OC(=O)NCc2cncn2C)C3)c1 (stereo not shown) [Example 272, (3-Methyl-3H-imidazol-4-ylmethyl)-carbamic acid 3-cyano-2-[3-(3-methoxy-phenyl)-butanoylamino]-4,5,6,7-tetrahydro-benzo[b]thiophen-6-yl ester] | 501 to 2000 |
| ≥ 100 | COc1cccc(C(C)CC(=O)Nc2sc3c(c2C#N)CCC(OC(=O)NCc2cc(C)nn2C)C3)c1 (stereo not shown) [Example 273, (2,5-Dimethyl-2H-pyrazol-3-ylmethyl)-carbamic acid 3-cyano-2-[3-(3-methoxy-phenyl)-butanoylamino]-4,5,6,7-tetrahydro-benzo[b] thiophen-6-yl ester] | ≤ 501 |
| ≥ 100 | COc1cccc(C(C)CC(=O)Nc2sc3c(c2C#N)CCC(OC(=O)NCc2cnn(C)c2)C3)c1 (stereo not shown) [Example 274, (1-Methyl-1H-pyrazol-4-ylmethyl)-carbamic acid 3-cyano-2-[3-(3-methoxy-phenyl)-butanoylamino]-4,5,6,7-tetrahydro-benzo[b] thiophen-6-yl ester] | 501 to 2000 |
| ≥ 100 | COc1cccc(C(C)CC(=O)Nc2sc3c(c2C#N)CCC(OC(=O)NCc2cn(C)nc2C)C3)c1 (stereo not shown) [Example 276, (1,3-Dimethyl-1H-pyrazol-4-ylmethyl)-carbamic acid 3-cyano-2-[3-(3-methoxy-phenyl)-butanoylamino]-4,5,6,7-tetrahydro-benzo[b]thiophen-6-yl ester] | ≤ 501 |
| ≥ 100 | COc1cccc(C(C)CC(=O)Nc2sc3c(c2C#N)CCC(OC(=O)NCc2ccnn2C)C3)c1 (stereo not shown) [Example 277, (2-Methyl-2H-pyrazol-3-ylmethyl)-carbamic acid 3-cyano-2-[3-(3-methoxy-phenyl)-butanoylamino]-4,5,6,7-tetrahydro-benzo[b] thiophen-6-yl ester] | ≤ 501 |
| ≥ 100 | CCNC(=O)OCC1CCc2c(sc(NC(=O)CC(C)c3cccnc3)c2C#N)C1 (stereo not shown) [Example 278, Ethyl-carbamic acid 3-cyano-2-(3-pyridin-3-yl-butanoylamino)-4,5,6,7-tetrahydro-benzo[b] thiophen-6-ylmethyl ester] | 501 to 2000 |
| ≥ 50.1 | COc1cccc(C(C)CC(=O)Nc2sc3c(c2C#N)CCC(OC(=O)NCCn2ccnc2)C3)c1 (stereo not shown) [Example 280, (2-Imidazol-1-yl-ethyl)-carbamic acid 3-cyano-2-[3-(3-methoxy-phenyl)-butanoylamino]-4,5,6,7-tetrahydro-benzo[b] thiophen-6-yl ester] | 501 to 2000 |
| ≥ 100 | CC(CC(=O)Nc1sc2c(c1C#N)CCC(COC(=O)NCc1cnn(C)c1)C2)c1cccnc1 (stereo not shown) [Example 281, (1-Methyl-1H-pyrazol-4-ylmethyl)-carbamic acid 3-cyano-2-(3-pyridin-3-yl-butanoyl-amino)-4,5,6,7-tetrahydro-benzo[b] thiophen-6-ylmethyl ester] | 501 to 2000 |
